# Data: US11185514B2, “Aqueous solution comprising a polyphenol” (OPTERION Health AG, priority 2015, dated 2021)
# Legend:
# [1] = Solubility after one hour stirring at RT as a function of glucose or icodextrin concentration in salt solution at pH 3 or pH 7 (Example 1); format: physicochemical; details: 0% glucose or icodextrin
# Experimental: Concentrations of stilbenoid in the present invention are measured after 1 hour stirring at room temperature, which is preferably 20-23° C., more preferably 22°. So, stilbenoid concentrations correspond to measured solubility after 1 hour stirring at room temperature. Concentration is measured in aqueous solution, comprising the stilbenoid and the at least one saccharide. If not specifically indicated, or if not specifically indicated otherwise, the time of stirring is one hour. In some cases, other stirring times are indicated, such as 12 hours. […] With increasing concentrations of saccharides, less variations were observed. This is highly beneficial for pharmacological formulations. For analysis R and P and their impurities were separated by a C-18 column with a gradient system and UV-detection at 306 nm. Solubility and stability of Resveratrol and […] after one hour stirring at RT, as a function of glucose or icodextrin concentration in a solution, containing 5.4 g/L NaCl, 4.5 g/L NaLactate, 0.275 g/L CaCl2, and 0.051 g/L MgCl2, buffered at pH 3 or pH 7. Solubility was measured after one hour stirring at room temperature, in presence of excess solute, followed by filtering.
# [2] = Stability after one hour stirring at RT as a function of glucose or icodextrin concentration in salt solution at pH 3 or pH 7 (Example 1); format: physicochemical; details: pH of 3 to 3.5
# Experimental: For analysis R and P and their impurities were separated by a C-18 column with a gradient system and UV-detection at 306 nm. Solubility and stability of Resveratrol and […] after one hour stirring at RT, as a function of glucose or icodextrin concentration in a solution, containing 5.4 g/L NaCl, 4.5 g/L NaLactate, 0.275 g/L CaCl2, and 0.051 g/L MgCl2, buffered at pH 3 or pH 7. Solubility was measured after one hour stirring at room temperature, in presence of excess solute, followed by filtering.
# [3] = Solubility in commercial peritoneal dialysis solutions (Medium B, E, F), 5 minutes to 12 hours stirring (Example 2); format: physicochemical; details: for P in Medium B found: Medium B (106.5 g/L anhydrous glucose, pH 3.5); for P in Medium B found / P in Medium E found / P in Medium F found: room temperature; for P in Medium E found: Medium E (75 g/L Icodextrin, pH 3); for P in Medium F found: Medium F (30 g/L anhydrous glucose, pH 3)
# Experimental: (§1) Solubility studies were carried out commercially available peritoneal dialysis solutions Fresenius Safestay® 1.5% glucose, Baxter Physioneal® 3.86% glucose and Baxter Extraneal® (7.5% icodextrin), precisely in acidic glucose solutions, such as applied in two compartiment peritoneal dialysis applications Stay Safe® and Physioneal®, as well as in Extraneal® Solution that had previously been acidified to pH3. Medium B (117.14 g/L glucose monohydrate (equivalent to 106.5 g/L anhydrous glucose), 0.507 g/L Calcium chloride dihydrate, 0.140 g/L Magnesium chloride hexahydrate, measured pH 3.5), Medium E (75 g/L Icodextrin, 5.35 g/L Sodium Chloride, 4.48 g/L Sodium Lactate, 257 mg/L Calcium Chloride USP, 50.8 mg/L Magnesium Chloride USP, adjusted to pH 3 in our lab), and Medium F (30 g/L anhydrous glucose, 11.279 g/L Sodium chloride, 0.3675 g/L Calcium chloride dihydrate, 0.2033 g/L Magnesium chloride hexahydrate, measured pH 3).
# Solubility was measured after 5 minutes to 12 hours stirring at room temperature, in presence of excess solute, followed by filtering.
# Solubility was measured after one hour or 12 hours stirring at room temperature, in presence of excess solute, followed by filtering.
# [4] = Stability of Resveratrol in commercial dialysis solutions during autoclavation (Example 4); format: physicochemical
# Experimental: For analysis R and P and their impurities were separated by a C-18 column with a gradient system and UV-detection at 306 nm.
# as §1
# Stability of Resveratrol in commercial dialysis solutions during autoclavation. Experiment was carried out in previous defined media B, E and F. 25 mg of resveratrol were sonicated in each medium and 0.45 μm filtered to give clear solutions. Obtained solutions were autoclaved for 30 min at 121° C.
# [5] = Solubility after one hour stirring at RT as a function of saccharide concentration in H2O (Examples 5-9); format: physicochemical; details: 24% N-acetylglucosamin in H2O, 1 hour stirring RT
# Experimental: (§2) Solubility measurements after 1 hour stirring at RT generated some variability in-between measurement series, which might be due to low temperature variations, back-ground measurements and experimental imprecisions. […] The here calculated factors of increase of solubility are therefore to be considered as conservative.
# Solubility of Resveratrol after one hour stirring at RT, as a function of the concentration of Maltose, Maltotriose, Isomaltotriose, and Maltotetraose in H2O. Solubility was measured after one hour stirring at room temperature, in presence of excess solute, followed by filtering. […] Concentration of Maltose and maltotriose of 7.5% increased solubility of the stilbenoid resveratrol by a factor higher than 6 and 3 respectively.
# Solubility of Resveratrol after one hour stirring at RT, as a function of the concentration of Maltodextrin DE 16-19 (DE═dextrose equivalents), Maltodextrin DE 4-7 or Icodextrin in H2O. Solubility was measured after one hour stirring at room temperature, in presence of excess solute, followed by filtering.
# Solubility of Resveratrol after one hour stirring at RT, as a function of the concentration of Dextran 2.5-4 kD, Dextran 10 kD, Glycogen 100 kD, and Pullulan 100-200 kD, in H2O. Solubility was measured after one hour stirring at room temperature, in presence of excess solute, followed by filtering. […]
# [6] = Solubility of resveratrol in water / aqueous solution after stirring at room temperature (general statements); format: physicochemical
# Experimental: Concentrations of stilbenoid in the present invention are measured after 1 hour stirring at room temperature, which is preferably 20-23° C., more preferably 22°. So, stilbenoid concentrations correspond to measured solubility after 1 hour stirring at room temperature. Concentration is measured in aqueous solution, comprising the stilbenoid and the at least one saccharide. If not specifically indicated, or if not specifically indicated otherwise, the time of stirring is one hour. In some cases, other stirring times are indicated, such as 12 hours. […] With increasing concentrations of saccharides, less variations were observed. This is highly beneficial for pharmacological formulations.
# as §2
# [7] = cited from earlier work
SMILES,effect of pH3 versus pH7 on solubility [1],stabilization by pH [2],P in Medium B found ([3]; stirring time 60 min) [mg/L],P in Medium B found ([3]; stirring time 12 h) [mg/L],P in Medium E found ([3]; stirring time 60 min) [mg/L],P in Medium E found ([3]; stirring time 12 h) [mg/L],P in Medium F found ([3]; stirring time 60 min) [mg/L],P in Medium F found ([3]; stirring time 12 h) [mg/L],"stability of solubilized piceid over stirring time ([3]; commercial dialysis solutions, between 1 and 12 hours stirring)","solubility relative to referred absolute solubility (approximately 30 mg/L) ([3]; 7.5% Icodextrin (Medium E), 12 hours stirring)","stability on heat sterilization ([4]; pH 3 adjusted Extraneal solution, heat sterilization)","stability during standard heat-sterilization ([4]; saccharide containing dialysis solutions at pH3, specifically in presence of 7.5% Icodextrin)",increase of concentration [5] [times],"solubility at 1 h ([6]; 22 °C, thermodynamic from solid, after 1 hour stirring, distilled water, variation between measurements) [µg/mL]",concentration of resveratrol after 12 hours ([6]; 12 hours stirring),referred absolute solubility of Resveratrol in aqueous solution [7]
"OC[C@H]1O[C@@H](Oc2cc(O)cc(/C=C/c3ccc(O)cc3)c2)[C@H](O)[C@@H](O)[C@@H]1O [Piceid, resveratrol-3-O-β-mono-D-glucoside]",slightly increases solubility,significantly stabilize,485.6,342.9,1585.5,1370.3,493.8,461.4,stable between 1 and 12 hours,,,,,,,
"Oc1ccc(/C=C/c2cc(O)cc(O)c2)cc1 [Resveratrol, trans-3,5,4′-trihydroxystilbene]",slightly increases solubility,significantly stabilize,,,,,,,,about 4 times,without degradation,remarkably high,12,1 to 6.5,above 24 mg/L,approximately 30 mg/L
